Columns and labels:
Melanocortin receptor 4 = Melanocortin receptor 4 (Homo sapiens, UniProt P32245); assay type: cell membranes, Membrane; conditions: hek293; note: in other assays of this panel Not Active means under 50% inhibition at 10 µM
[1] = target: Tyrosine-protein kinase Fyn (Homo sapiens, UniProt P06241); experiment: biochemical; assay type: cell-based, Insect cells; conditions: insect cells;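 note: enzymatic inhibition of Fyn kinase activity measured with Poly(Glu:Tyr) as the phosphorylation substrate; in other assays of this panel Not Active means under 50% inhibition at 10 µM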
Neutrophil elastase = target: T1, Neutrophil elastase (Homo sapiens, UniProt P08246); assay type: tissue-based;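 note: inhibition of neutrophil elastase enzyme activity, measured with a p-nitroanilide-linked peptide substrate; in other assays of this panel Not Active means under 50% inhibition at 10 µM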
T1 sequence (P08246 whole entry): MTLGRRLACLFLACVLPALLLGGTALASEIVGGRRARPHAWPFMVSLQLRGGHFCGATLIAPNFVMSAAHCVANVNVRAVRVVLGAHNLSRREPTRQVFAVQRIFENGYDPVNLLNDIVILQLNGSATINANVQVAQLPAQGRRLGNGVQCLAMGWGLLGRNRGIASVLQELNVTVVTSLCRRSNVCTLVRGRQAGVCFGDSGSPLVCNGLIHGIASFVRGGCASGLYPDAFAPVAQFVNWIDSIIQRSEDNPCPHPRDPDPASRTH

Leukotriene C4 synthase = target: T2, Leukotriene C4 synthase (Cavia porcellus, UniProt A6XA80); assay type: tissue-based, Lung;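 note: enzyme inhibition assay of leukotriene C4 synthase, using LTA4 as the substrate; in other assays of this panel Not Active means under 50% inhibition at 10 µM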
T2 sequence (A6XA80 whole entry): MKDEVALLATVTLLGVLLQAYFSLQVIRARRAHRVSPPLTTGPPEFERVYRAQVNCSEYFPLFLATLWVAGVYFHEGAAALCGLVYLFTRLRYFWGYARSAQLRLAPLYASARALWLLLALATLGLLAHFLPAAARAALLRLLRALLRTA

Estrogen receptor = target: T3, Estrogen receptor (Homo sapiens, UniProt P03372); conditions: sf9; note: in other assays of this panel Not Active means under 50% inhibition at 10 µM
T3 sequence (P03372 whole entry): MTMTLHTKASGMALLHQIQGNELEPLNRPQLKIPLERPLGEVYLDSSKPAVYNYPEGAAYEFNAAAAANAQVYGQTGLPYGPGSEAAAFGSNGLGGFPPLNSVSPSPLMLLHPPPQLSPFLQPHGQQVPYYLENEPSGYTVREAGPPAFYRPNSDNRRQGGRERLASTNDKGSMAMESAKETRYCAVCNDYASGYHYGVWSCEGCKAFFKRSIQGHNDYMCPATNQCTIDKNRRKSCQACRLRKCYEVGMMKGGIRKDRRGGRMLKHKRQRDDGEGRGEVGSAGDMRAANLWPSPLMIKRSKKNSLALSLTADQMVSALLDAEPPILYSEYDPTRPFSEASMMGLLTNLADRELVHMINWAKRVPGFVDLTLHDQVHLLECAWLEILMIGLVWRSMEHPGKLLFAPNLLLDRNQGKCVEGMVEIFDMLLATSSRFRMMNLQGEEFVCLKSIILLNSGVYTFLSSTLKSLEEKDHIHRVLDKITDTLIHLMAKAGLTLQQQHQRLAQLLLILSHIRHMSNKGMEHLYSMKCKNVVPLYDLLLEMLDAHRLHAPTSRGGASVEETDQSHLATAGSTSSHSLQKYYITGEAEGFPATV

[2] = DRUGMATRIX: Glutamate, Kainate radioligand binding (ligand: [3H] Kainic acid); assay type: cell membranes, Rattus norvegicus, Wistar, Brain, Membrane; conditions: Not Active = under 50% inhibition at 10 µM
Cathepsin G = target: T4, Cathepsin G (Homo sapiens, UniProt P08311); assay type: tissue-based; conditions: neutrophil
T4 sequence (P08311 whole entry): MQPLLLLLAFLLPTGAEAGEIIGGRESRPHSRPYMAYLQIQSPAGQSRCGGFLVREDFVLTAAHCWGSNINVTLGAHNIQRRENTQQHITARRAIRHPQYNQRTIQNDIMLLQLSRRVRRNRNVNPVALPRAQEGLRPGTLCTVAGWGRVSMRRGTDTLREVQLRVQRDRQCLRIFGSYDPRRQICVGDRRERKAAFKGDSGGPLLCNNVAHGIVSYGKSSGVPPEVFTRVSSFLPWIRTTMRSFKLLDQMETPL

Endothelin-1 receptor = target: T5, Endothelin-1 receptor (Homo sapiens, UniProt P25101); assay type: cell membranes, CHO-K1, Membrane; conditions: cho-k1; note: in other assays of this panel Not Active means under 50% inhibition at 10 µM
T5 sequence (P25101 whole entry): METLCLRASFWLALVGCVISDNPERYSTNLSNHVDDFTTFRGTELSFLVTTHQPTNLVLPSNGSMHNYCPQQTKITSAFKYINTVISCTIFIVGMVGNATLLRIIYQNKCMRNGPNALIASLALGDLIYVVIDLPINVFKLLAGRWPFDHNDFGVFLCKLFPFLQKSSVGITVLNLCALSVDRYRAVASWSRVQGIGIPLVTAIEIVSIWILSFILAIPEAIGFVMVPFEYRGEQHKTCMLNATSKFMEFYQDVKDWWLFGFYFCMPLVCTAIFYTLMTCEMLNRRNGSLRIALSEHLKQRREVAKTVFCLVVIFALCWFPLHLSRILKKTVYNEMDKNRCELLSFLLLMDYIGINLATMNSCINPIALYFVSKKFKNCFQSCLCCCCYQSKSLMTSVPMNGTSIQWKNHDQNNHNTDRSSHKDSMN

Nitric oxide synthase 1 = Nitric oxide synthase 1 (Rattus norvegicus, UniProt P29476); assay type: tissue-based, Cerebellum; note: in other assays of this panel Not Active means under 50% inhibition at 10 µM
Sequence of Nitric oxide synthase 1 (P29476 whole entry): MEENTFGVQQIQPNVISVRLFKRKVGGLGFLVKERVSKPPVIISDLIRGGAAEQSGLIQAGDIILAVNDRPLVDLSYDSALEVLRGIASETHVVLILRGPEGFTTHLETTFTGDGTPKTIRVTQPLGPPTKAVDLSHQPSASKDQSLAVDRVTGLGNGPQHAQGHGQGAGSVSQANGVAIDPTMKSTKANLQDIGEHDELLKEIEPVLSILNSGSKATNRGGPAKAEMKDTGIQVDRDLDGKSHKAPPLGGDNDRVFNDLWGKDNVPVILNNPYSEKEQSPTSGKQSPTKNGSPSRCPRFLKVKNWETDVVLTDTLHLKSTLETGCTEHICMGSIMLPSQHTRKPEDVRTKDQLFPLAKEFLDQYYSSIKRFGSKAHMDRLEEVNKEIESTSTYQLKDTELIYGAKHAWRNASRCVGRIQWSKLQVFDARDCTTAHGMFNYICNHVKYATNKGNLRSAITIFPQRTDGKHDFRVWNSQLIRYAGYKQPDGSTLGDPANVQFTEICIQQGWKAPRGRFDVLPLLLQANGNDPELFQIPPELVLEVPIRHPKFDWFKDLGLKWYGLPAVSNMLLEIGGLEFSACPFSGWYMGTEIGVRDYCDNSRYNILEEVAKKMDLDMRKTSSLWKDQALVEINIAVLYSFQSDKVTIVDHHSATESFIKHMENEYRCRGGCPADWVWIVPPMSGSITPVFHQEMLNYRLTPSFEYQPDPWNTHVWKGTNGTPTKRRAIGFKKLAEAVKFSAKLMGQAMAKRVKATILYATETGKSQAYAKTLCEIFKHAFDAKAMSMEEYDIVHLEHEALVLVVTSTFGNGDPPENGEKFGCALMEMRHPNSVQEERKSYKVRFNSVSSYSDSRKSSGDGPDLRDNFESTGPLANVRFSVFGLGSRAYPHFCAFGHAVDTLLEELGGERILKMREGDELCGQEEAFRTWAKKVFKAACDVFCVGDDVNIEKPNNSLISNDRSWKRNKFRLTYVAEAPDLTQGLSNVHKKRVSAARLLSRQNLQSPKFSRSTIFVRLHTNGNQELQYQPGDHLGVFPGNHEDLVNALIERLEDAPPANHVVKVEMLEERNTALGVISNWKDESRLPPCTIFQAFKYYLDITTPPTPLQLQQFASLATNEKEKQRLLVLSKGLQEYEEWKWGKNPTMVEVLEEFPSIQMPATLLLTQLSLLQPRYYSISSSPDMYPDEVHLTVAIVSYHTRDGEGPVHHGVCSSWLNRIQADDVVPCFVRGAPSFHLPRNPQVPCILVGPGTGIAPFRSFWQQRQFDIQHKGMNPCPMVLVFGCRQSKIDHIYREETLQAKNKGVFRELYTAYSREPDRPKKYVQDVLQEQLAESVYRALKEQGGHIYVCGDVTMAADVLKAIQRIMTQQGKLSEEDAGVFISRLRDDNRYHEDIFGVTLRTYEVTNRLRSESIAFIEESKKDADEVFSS

Sequence of Tyrosine-protein kinase Fyn (P06241 whole entry): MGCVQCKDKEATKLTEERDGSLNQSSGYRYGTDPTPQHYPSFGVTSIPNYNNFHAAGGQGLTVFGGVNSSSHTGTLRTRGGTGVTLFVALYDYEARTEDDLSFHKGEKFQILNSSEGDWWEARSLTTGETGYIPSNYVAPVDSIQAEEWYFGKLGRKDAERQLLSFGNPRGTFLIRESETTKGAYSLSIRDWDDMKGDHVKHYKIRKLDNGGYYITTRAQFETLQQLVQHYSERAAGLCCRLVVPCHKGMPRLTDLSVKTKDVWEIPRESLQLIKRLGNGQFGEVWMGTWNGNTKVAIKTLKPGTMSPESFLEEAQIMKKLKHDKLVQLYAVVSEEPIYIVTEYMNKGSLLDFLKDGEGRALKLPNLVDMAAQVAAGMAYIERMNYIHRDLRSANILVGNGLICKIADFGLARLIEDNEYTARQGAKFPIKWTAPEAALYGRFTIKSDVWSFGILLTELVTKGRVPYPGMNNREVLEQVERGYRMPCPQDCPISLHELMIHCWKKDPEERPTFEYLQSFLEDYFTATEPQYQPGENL
Sequence of Melanocortin receptor 4 (P32245 whole entry): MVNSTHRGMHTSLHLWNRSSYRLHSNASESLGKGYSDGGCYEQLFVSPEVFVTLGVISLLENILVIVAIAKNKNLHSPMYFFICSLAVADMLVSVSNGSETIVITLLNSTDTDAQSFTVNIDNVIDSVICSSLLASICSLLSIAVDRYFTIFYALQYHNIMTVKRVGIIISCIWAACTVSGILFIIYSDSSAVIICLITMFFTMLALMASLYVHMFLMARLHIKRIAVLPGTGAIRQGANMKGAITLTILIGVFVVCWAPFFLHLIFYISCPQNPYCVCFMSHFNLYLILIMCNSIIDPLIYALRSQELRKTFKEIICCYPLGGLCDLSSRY

COc1ccccc1OCC(O)COC(N)=O (stereo not given) [METHOCARBAMOL]
Not Active: IC50 (Melanocortin receptor 4) | IC50 [1] | IC50 (Neutrophil elastase) | IC50 (Leukotriene C4 synthase) | IC50 (Estrogen receptor) | IC50 [2] | Ki [2] | IC50 (Cathepsin G) | IC50 (Endothelin-1 receptor) | IC50 (Nitric oxide synthase 1)

CO[C@@]1(NC(=O)CSCC#N)C(=O)N2C(C(=O)O)=C(CSc3nnnn3C)CS[C@@H]21 [CEFMETAZOLE]
Not Active: IC50 (Melanocortin receptor 4) | IC50 [1] | IC50 (Neutrophil elastase) | IC50 (Leukotriene C4 synthase) | IC50 (Estrogen receptor) | IC50 [2] | Ki [2] | IC50 (Cathepsin G) | IC50 (Endothelin-1 receptor) | IC50 (Nitric oxide synthase 1)

C=C(CC)C(=O)c1ccc(OCC(=O)O)c(Cl)c1Cl [ETHACRYNIC ACID]
Not Active: IC50 (Melanocortin receptor 4) | IC50 [1] | IC50 (Neutrophil elastase) | IC50 (Leukotriene C4 synthase) | IC50 (Estrogen receptor) | IC50 [2] | Ki [2] | IC50 (Cathepsin G) | IC50 (Endothelin-1 receptor) | IC50 (Nitric oxide synthase 1)

CC(C)(CO)C(O)C(=O)NCCCO (stereo not given) [PANTHENOL]
Not Active: IC50 (Melanocortin receptor 4) | IC50 [1] | IC50 (Neutrophil elastase) | IC50 (Leukotriene C4 synthase) | IC50 (Estrogen receptor) | IC50 [2] | Ki [2] | IC50 (Cathepsin G) | IC50 (Endothelin-1 receptor) | IC50 (Nitric oxide synthase 1)

NC(=O)N1c2ccccc2C=Cc2ccccc21 [CARBAMAZEPINE]
Not Active: IC50 (Melanocortin receptor 4) | IC50 [1] | IC50 (Neutrophil elastase) | IC50 (Leukotriene C4 synthase) | IC50 (Estrogen receptor) | IC50 [2] | Ki [2] | IC50 (Cathepsin G) | IC50 (Endothelin-1 receptor) | IC50 (Nitric oxide synthase 1)

CN(Cc1cnc2nc(N)nc(N)c2n1)c1ccc(C(=O)N[C@@H](CCC(=O)O)C(=O)O)cc1 [METHOTREXATE]
Not Active: IC50 (Melanocortin receptor 4) | IC50 [1] | IC50 (Neutrophil elastase) | IC50 (Leukotriene C4 synthase) | IC50 (Estrogen receptor) | IC50 [2] | Ki [2] | IC50 (Cathepsin G) | IC50 (Endothelin-1 receptor) | IC50 (Nitric oxide synthase 1)

O=P1(N(CCCl)CCCl)NCCCO1 (stereo not given) [CYCLOPHOSPHAMIDE ANHYDROUS]
Not Active: IC50 (Melanocortin receptor 4) | IC50 [1] | IC50 (Neutrophil elastase) | IC50 (Leukotriene C4 synthase) | IC50 (Estrogen receptor) | IC50 [2] | Ki [2] | IC50 (Cathepsin G) | IC50 (Endothelin-1 receptor) | IC50 (Nitric oxide synthase 1)

CCn1cc(C(=O)O)c(=O)c2cc(F)c(N3CCNCC3)nc21 [ENOXACIN]
Not Active: IC50 (Melanocortin receptor 4) | IC50 [1] | IC50 (Neutrophil elastase) | IC50 (Leukotriene C4 synthase) | IC50 (Estrogen receptor) | IC50 [2] | Ki [2] | IC50 (Cathepsin G) | IC50 (Endothelin-1 receptor) | IC50 (Nitric oxide synthase 1)

CC(=O)O[C@]1(C(C)=O)CC[C@H]2[C@@H]3C=C(C)C4=CC(=O)CC[C@]4(C)[C@H]3CC[C@@]21C [MEGESTROL ACETATE]
Not Active: IC50 (Melanocortin receptor 4) | IC50 [1] | IC50 (Neutrophil elastase) | IC50 (Leukotriene C4 synthase) | IC50 (Estrogen receptor) | IC50 [2] | Ki [2] | IC50 (Cathepsin G) | IC50 (Endothelin-1 receptor) | IC50 (Nitric oxide synthase 1)

CCOC(=O)n1ccn(C)c1=S [CARBIMAZOLE]
Not Active: IC50 (Melanocortin receptor 4) | IC50 [1] | IC50 (Neutrophil elastase) | IC50 (Leukotriene C4 synthase) | IC50 (Estrogen receptor) | IC50 [2] | Ki [2] | IC50 (Cathepsin G) | IC50 (Endothelin-1 receptor) | IC50 (Nitric oxide synthase 1)

NC[C@H]1O[C@H](O[C@H]2[C@H](O)[C@@H](O[C@H]3O[C@H](CO)[C@@H](O)[C@H](N)[C@H]3O)[C@H](N)C[C@@H]2N)[C@H](O)[C@@H](O)[C@@H]1O [KANAMYCIN]
Not Active: IC50 (Melanocortin receptor 4) | IC50 [1] | IC50 (Neutrophil elastase) | IC50 (Leukotriene C4 synthase) | IC50 (Estrogen receptor) | IC50 [2] | Ki [2] | IC50 (Cathepsin G) | IC50 (Endothelin-1 receptor) | IC50 (Nitric oxide synthase 1)

COc1cc(CNC(=O)CCCC/C=C/C(C)C)ccc1O [CAPSAICIN]
Not Active: IC50 (Melanocortin receptor 4) | IC50 [1] | IC50 (Neutrophil elastase) | IC50 (Leukotriene C4 synthase) | IC50 (Estrogen receptor) | IC50 [2] | Ki [2] | IC50 (Cathepsin G) | IC50 (Endothelin-1 receptor) | IC50 (Nitric oxide synthase 1)
